Like-named read-outs stand apart in the source and are kept apart here.
How the values were obtained:
[1] = tested on: methylphenidate induced stereotypies; assay: Methylphenidate Antagonism; type: in vivo, mice; settings: Mus musculus, ip, read-out: MePh antg. ED50, i.p., mice, 2 hours before methylphenidate 60 mg/kg s.c.
Description: The experiments were made as described by Pedersen and Christensen (1972) Acta Pharmacol. et Toxicol. 31, 488-496.--Briefly, test compounds or saline were injected i.p. 2 hours before methylphenidate, 60 mg/kg s.c. 3 pairs of mice were used for each dose level. After methylphenidate injection the mice were placed in observation cages for one hour. The cages were placed on corrugated paper, the corrugation facing upwards.

[2] = tested on: 1-5-HTP-induced head shakes; assay: 1-5-HTP-induced head shakes; type: in vivo; settings: rats, 1-5-HTP 75 mg/kg i.p. after citalopram; for ED50: Rattus norvegicus, sc, read-out: 1-5-HTP-antg. ED50; for 1-5-HTP-antg. ED50: s.c.
Description: The rats were pretreated subcutaneously with test compound or saline simultaneously with or 90 min before injection of citalopram (10 mg/kg s.c.).
(§1) Each group consisted of 4-12 rats.

[3] = molecular target: T1, 5-HT2 receptors (Rattus norvegicus, UniProt P14842); assay: 3H-spiroperidol binding to 5-HT2 receptors; settings: rat whole cortex, 0.5 nM 3H-spiroperidol, 0.3 μM sulpiride; read-out: 3H-SPI binding 5-HT2 IC50
T1 construct: Rat whole cortex was homogenized by an Ultra Turrax homogenizer; from tissue; host or cells: rat whole cerebral cortex, crude washed membranes
Description: ^3 H-spiroperidol binding to 5-HT2 receptors.
Rat whole cortex was homogenized by an Ultra Turrax homogenizer in 100 vol. of 50 mM Tris buffer pH 7.7. The homogenate was centrifuged at 20,000 g for 10 minutes at 4° C. The pellet was rehomogenized in another volume of buffer and centrifuged as mentioned above. The final pellet was rehomogenized in 50 mM Tris buffer pH 7.7 containing 120 mM NaCl, 5 mM KCl, 2 mM CaCl2 and 1 mM MgCl2 (ion mix) in a volume corresponding to 12.5 mg original tissue per ml.
Test drugs were dissolved in water; ^3 H-spiroperidol (NEN, 28-30 Ci/mmol) was diluted in 3 μM sulpiride, and 800 μl membrane suspension were added. Final concentration of ligand and sulpiride were 0.5 nM and 0.3 μM, respectively. The samples were incubated at 37° C. for 10 min. The samples were then filtered under vacuum through Whatman GF/B glass-fiber filters. The tubes were then rinsed with 5 ml incubation buffer, which was poured on the filters. The filters were finally washed twice with 5 ml buffer and placed in counting vials. After addition of 5 ml scintillation fluid (Lumagel) radioactivity was estimated by liquid scintillation counting. Non-specific binding was obtained by adding Mianserin (1 μM) to separate samples. Each drug was tested at least twice at 5 concentrations in triplicate. IC50-values were determined from log concentration-response curves.--The presence of sulpiride excluded binding to dopamine D-2 receptors.

[4] = tested on: spontaneous hypertensive rats (SHR); assay: Antihypertensive effect in spontaneous hypertensive rats (SHR); type: in vivo; settings: for change in vivo at 5 mg/kg / ED10: Rattus norvegicus, ip; for change in vivo at 5 mg/kg: 1 h; for peripheral or central action: in words
Description: Antihypertensive effect in spontaneous hypertensive rats (SHR)
The femoral artery of male SHR is cannulated in anaestesia for blood pressure recordings. After a stabilization period of 11/2 h after discontinuation of the anaesthesia initial blood pressure curves are recorded and the systolic (SAP)/diastolic (DAP) pressure determined (-20, -10, 0, min. p.i.) Test substance is injected i.p. and the pressure curve recorded for one hour. The change in SAP/DAP is calculated in percent at mean initial values at different times (10, 20, 30, 40, 50 and 60 minutes after injection). At least two SHR are used per dose level. The maximum change is used for estimation of the drug effect.

[5] = tested on: 5-HT pressor responses; assay: Antagonism to 5-HT pressor responses in pithed rats; type: in vivo; settings: for change in vivo at 0.02 mg/kg / ED50: Rattus norvegicus, iv; for ED50: read-out: Effects on pressor response of 5-HT, ED50, pithed rats, jugular vein
Description: (§2) The rat is anaesthetized with ether, tracheotomized, artificial respired and pithed. The knitting-needle is introduced through the right orbita into the cranial cavity and passed through foramen magnum into the spinal canal as far as possible. The spinal cord is destroyed by turning the needle. After vagotomi both carotides are ligated and a catheter placed in the right one for pressure recording. The rat is adrenalectomized. […] The initial and post medication mean pressor effect is calculated, and the mean pressor effect is calculated as % of the initial value. Two to five preparations are employed for each dose level. The ED50 is determined.

[6] = tested on: phenylephrine pressor responses; assay: Antagonism to phenylephrine pressor responses in pithed rats; type: in vivo; settings: for ED50 / change in vivo at […]: Rattus norvegicus, iv; for ED50: read-out: Effects on pressor response of Phenylephrine, ED50; for Phenylephr. antg./5-HT antg. (ratio): ratio of phenylephrine ED50 to 5-HT ED50; for change in vivo at […]: read-out: Effects on pressor response of Phenylephrine, % eff. of […], pithed rats, […], jugular vein, read-out: Effects on pressor response of Phenylephrine, % eff. of 0.31 mg/kg
Description: as §2

[7] = tested on: Quipazine-induced head shakes; assay: Quipazine-induced head shakes; type: in vivo; settings: Rattus norvegicus, sc, rats, 2 hours before quipazine 5 mg/kg s.c.; read-out: Quipazine antg. (Q) ED50
Description: The rats were pretreated subcutaneously with test compound or saline 2 hours before injection of quipazine (5 mg/kg s.c.). The rats were then placed individually in perspex observation cages (12×25 cm), and in standard experiments the number of head shakes (involving the head and sometimes part of the body) were counted for 10 min., 30-40 min. after quipazine, where the effect was maximal. The number of head shakes in each dose group were expressed in percent of those induced in the control group, and ED50 values were calculated by log-probit analysis of results from at least 3 doses.
as §1

[8] = read-out: Antihypertensive eff. SHR, max eff. in % of 5 mg/kg ip, DAP, 5 mg/kg ip, diastolic pressure (DAP), max change within one hour
[9] = read-out: Antihypertensive eff. SHR, max eff. in % of 5 mg/kg ip, SAP, 5 mg/kg ip, systolic pressure (SAP), max change within one hour
[10] = read-out: Effects on pressor response of 5-HT, % eff. of 0.02 mg/kg, pithed rats, 0.02 mg/kg, jugular vein
[11] = 5 mg/kg ip, diastolic pressure (DAP), max change within one hour, read-out: Antihypertensive eff. SHR, max eff. in % of 5 mg/kg ip, DAP
[12] = 5 mg/kg ip, systolic pressure (SAP), max change within one hour, read-out: Antihypertensive eff. SHR, max eff. in % of 5 mg/kg ip, SAP
[13] = pithed rats, 0.02 mg/kg, jugular vein, read-out: Effects on pressor response of 5-HT, % eff. of 0.02 mg/kg
[14] = 5 mg/kg ip, diastolic pressure (DAP), max change within one hour
[15] = 5 mg/kg ip, systolic pressure (SAP), max change within one hour
[16] = read-out: Antihypertensive eff. SHR, ED10 DAP
[17] = read-out: Antihypertensive eff. SHR, ED10 SAP
[18] = pithed rats, 0.02 mg/kg, jugular vein

T1 sequence (P14842 whole entry): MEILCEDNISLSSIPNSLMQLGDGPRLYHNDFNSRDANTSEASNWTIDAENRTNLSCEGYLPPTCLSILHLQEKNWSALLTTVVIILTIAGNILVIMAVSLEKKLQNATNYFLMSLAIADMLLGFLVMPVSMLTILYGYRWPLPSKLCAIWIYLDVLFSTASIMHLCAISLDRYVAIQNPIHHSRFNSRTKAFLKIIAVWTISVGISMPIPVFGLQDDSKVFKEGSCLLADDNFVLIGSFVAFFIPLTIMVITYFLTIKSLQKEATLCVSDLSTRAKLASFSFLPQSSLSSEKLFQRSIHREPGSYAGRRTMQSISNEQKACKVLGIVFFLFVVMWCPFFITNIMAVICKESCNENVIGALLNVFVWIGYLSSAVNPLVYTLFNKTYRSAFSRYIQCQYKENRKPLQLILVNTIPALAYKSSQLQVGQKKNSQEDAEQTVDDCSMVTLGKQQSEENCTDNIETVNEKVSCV

SMILES	ED50 [1]	IC50 [3]	change in vivo at 5 mg/kg [4, 8]	change in vivo at 5 mg/kg [4, 9]	ED50 [5]	ED50 [6]	Phenylephr. antg./5-HT antg. (ratio) ([6]; pithed rats)	ED50 [7]	change in vivo at 5 mg/kg [4, 11]	change in vivo at 5 mg/kg [4, 12]	change in vivo at 0.02 mg/kg [5, 13]	change in vivo at […] [6]	further results
CSc1ccc2c(c1)[C@H](N1CCN(CCN3CCOC3=O)CC1)C[C@H]2c1ccc(F)cc1 (relative stereo) [compound 10, Trans-1-[3-(4-fluorophenyl)-6-methylthioindan-1-yl]-4-[2-(2-oxazolidinon-3-yl)ethyl]piperazine]	> 76 µmol/kg	6.6 nM	-22%	-14%	0.034 µmol/kg	9.4 µmol/kg	276						ED50 [2]: 2.4 µmol/kg; change in vivo at 0.02 mg/kg [5, 10]: -57%
O=C1NCCN1CCCN1CCN([C@@H]2C[C@@H](c3ccc(F)cc3)c3ccc(F)cc32)CC1 (relative stereo) [compound 14]	56 µmol/kg	6.3 nM	-19%	-12%	0.031 µmol/kg	2.68 µmol/kg	86						ED50 [2]: 2 µmol/kg; peripheral or central action [4]: mainly possess periferal action; change in vivo at 0.02 mg/kg [5, 10]: -68%
O=C1CCCN1CCN1CCN([C@@H]2C[C@@H](c3ccc(F)cc3)c3ccc(Cl)cc32)CC1 (relative stereo) [compound 21]	11 µmol/kg							0.079 µmol/kg	-14%	-11%	-83%	3%	
O=C1OCCN1CCN1CCN([C@@H]2C[C@@H](c3ccc(F)cc3)c3ccc(Cl)cc32)CC1 (relative stereo) [compound 22]	2.8 µmol/kg							0.12 µmol/kg	-21%	-17%	-77%	-5%	
Fc1ccc([C@@H]2C[C@@H](N3CCN(CCN4CCNC4=S)CC3)c3cc(F)ccc32)cc1 (relative stereo) [compound 24, Trans-1-[3-(4-fluorophenyl)-6-fluoroindan-1-yl]-4-[2-(2-imidazolidinthion-1-yl)ethyl]piperazine]	25 µmol/kg	5.2 nM	-20%	-10%	0.01 µmol/kg	3.7 µmol/kg	370						ED50 [2]: 0.13 µmol/kg; change in vivo at 0.02 mg/kg [5, 10]: -88%
Fc1ccc([C@@H]2C[C@@H](N3CCN(CCN4CCNC4=S)CC3)c3cc(Cl)ccc32)cc1 (relative stereo) [compound 28]	4.5 µmol/kg							0.017 µmol/kg	-10%	-6%	-93%	-22%	
Fc1ccc([C@@H]2C[C@@H](N3CCN(CCN4CCCC4=S)CC3)c3cc(Cl)ccc32)cc1 (relative stereo) [compound 29, (±)Trans-1-[3-(4-fluorophenyl)-6-chlorindan-1-yl]-4-[2-(2-pyrrolidinthion-1-yl)ethyl]piperazine]								< 0.17 µmol/kg	-4%	-5%	-88%	8%	
O=C1NCCN1CCN1CCN([C@@H]2C[C@@H](c3ccc(F)cc3)c3ccccc32)CC1 (single isomer, unassigned) [+1, (+)trans-1-[3-(4-fluorophenyl]indan-1-yl]-4-[2-(2-imidazolidinon-1-yl)ethyl]piperazine]	> 97 µmol/kg	6 nM			0.009 µmol/kg	3.21 µmol/kg	357						1-5-HTP-antg. ED50 [2]: 1.5 µmol/kg; Antihypertensive eff. SHR, max eff. in % of 5 mg/kg ip, DAP [4, 14]: -47%; Antihypertensive eff. SHR, max eff. in % of 5 mg/kg ip, SAP [4, 15]: -33%; ED10 [4, 16]: 1.2 µmol/kg; ED10 [4, 17]: 1.7 µmol/kg; peripheral or central action [4]: mainly possess periferal action; Effects on pressor response of 5-HT, % eff. of 0.02 mg/kg [5, 18]: -81%
O=C1NCCN1CCN1CCN([C@@H]2C[C@@H](c3ccc(F)cc3)c3ccc(F)cc32)CC1 (single isomer, unassigned) [+2, (+)Trans-1-[3-(4-fluorophenyl)-6-fluoroindan-1-yl]-4-[2-(2-imidazolidinon-1-yl)ethyl]piperazine]	> 61 µmol/kg	4.3 nM				1.43 µmol/kg	143						1-5-HTP-antg. ED50 [2]: 0.10 µmol/kg; Antihypertensive eff. SHR, max eff. in % of 5 mg/kg ip, DAP [4, 14]: -40%; Antihypertensive eff. SHR, max eff. in % of 5 mg/kg ip, SAP [4, 15]: -31%; ED10 [4, 16]: 0.8 µmol/kg; ED10 [4, 17]: 1.6 µmol/kg; Effects on pressor response of 5-HT, ED50 ([5]; pithed rats, jugular vein): 0.010 µmol/kg
CN1CCN(CCN2CCN([C@@H]3C[C@@H](c4ccc(F)cc4)c4ccc(F)cc43)CC2)C1=O (single isomer, unassigned) [+3, (+)Trans-1-[3-(4-fluorophenyl)-6-fluoroindan-1-yl]-4-[2-(3-methyl-2-imidazolidinon-1-yl)ethyl]piperazine]	> 91 µmol/kg	1.1 nM	-52%	-38%	0.004 µmol/kg	2.25 µmol/kg	563						1-5-HTP-antg. ED50 [2]: 0.023 µmol/kg; Effects on pressor response of 5-HT, % eff. of 0.02 mg/kg [5, 18]: -89%
O=C1NCCN1CCN1CCN([C@@H]2C[C@@H](c3ccc(F)cc3)c3ccc(Cl)cc32)CC1 (single isomer, unassigned) [+20, Trans-1-[3-(4-fluorophenyl)-6-chloroindan-1-yl]-4-[2-(2-imidazolidinon-1-yl)ethyl]piperazine, L(+)tartrate]	49 µmol/kg							0.028 µmol/kg					Antihypertensive eff. SHR, max eff. in % of 5 mg/kg ip, DAP [4, 14]: -45%; Antihypertensive eff. SHR, max eff. in % of 5 mg/kg ip, SAP [4, 15]: -29%; Effects on pressor response of 5-HT, % eff. of 0.02 mg/kg [5, 18]: -92%; Effects on pressor response of Phenylephrine, % eff. of […] ([6]; pithed rats, […], jugular vein): -34%
